Reference: patent US7923004B2 (priority 2006, dated 2011)

Assays:
[1] = system: HCV Genotype 1b luc-neo/ET replicon with Y2065H mutation in NS5A; test: Luciferase EC50 in Huh7-Lunet cells with luc-neo/ET/Y2065H mutant vs parental luc-neo/ET replicon; format: cell-based; conditions: transient replicons, 72 h
Method: Resistance of Compound #64 (Table 1) and related pyrazoles was then determined by treating Huh7-Lunet cells (Koutsoudakis et al, J. Virol. 81(2):588-98, 2007) transiently electroporated with RNAs transcribed from either the luc-neo/ET/Y2065H mutant and the parental luc-neo/ET replicons (Blight et al, J. Virol. 77(5):3181-90, 2003). Huh7-Lunet expressing the luc-neo/ET/Y2065H mutant and the parental luc-neo/ET replicons were treated with selected compounds for 72 hours. EC50 and CC50 values were determined as described in the HCV Replicon Luciferase Assay and CellTiter-Glo Cell Viability Assay protocols. […] CC50s for the compound vs. the luc-neo/ETIY2065H mutant and parental luc-neo/ET replicons were determined to be>33 μM.

[2] = system: HCV genotype 1b replicon (Huh-Luc-Neo cells); test: HCV Replicon RNA (Taqman) Assay, genotype 1b; format: cell-based; conditions: Hepatitis C virus, Huh-Luc-Neo cells, genotype 1b, HCV RNA, 72 h, read-out: HCV-1b Replicon Inhibition*, Taqman (EC50)
[3] = Cell Titer-Glo Cell Viability Assay, genotype 1b cells; format: cell-based; conditions: human, Huh-Luc-Neo (HCV genotype 1b replicon) cells, HCV genotype 1b assays, read-out: Cytotoxicity* (CC50)
Method: (§1) Cell Seeding and Compound Treatment: Huh-Luc-Neo (Genotype 1b) or En5-3/Htat2ANeo (Genotype 1a) cells are seeded at 5000-7000/well in an opaque-walled 96 plate with Growth Medium (DMEM phenol red free+PS+2 mM glutamine; 100 ul/well). The compounds to be tested for inhibition of cell viability are added to the experimental wells so as to generate a dose response curve (8-9 concentrations, 10 μl/well at 10× assay concentration) and the cells are then incubated (5% CO2, 37° C.) for 72 h.
(§2) Reagent Preparation and Assay: After completion of the incubation period the cell viability measurements are made using the Cell Titre Glo Assay (Promega) according to the manufacturer's recommended protocol. Briefly, the CellTiter-Glo Buffer is thawed and equilibrated to room temperature prior to use. The lyophilized CellTiter-Glo Substrate is also equilibrated to room temperature prior to use. 10 ml of CellTiter-Glo Buffer is then transferred to 1 vial of CellTiter-Glo Substrate and mixed gently with a Vortex. 100 μl of CellTiter-Glo Assay reagent (CellTiter-Glo Buffer+CellTiter-Glo Substrate Mixture) is added to each well. The well contents are mixed for 5 min. on an orbital shaker at room temperature to induce cell lysis and the luminescence is then measured using a luminometer.

[4] = system: HCV genotype 1b replicon (Huh-Luc-Neo cells); test: HCV Replicon Luciferase Assay; format: cell-based; conditions: Hepatitis C virus, Huh-Luc-Neo cells, genotype 1b, 72 h, read-out: HCV-1b Replicon Inhibition*, Luciferase (EC50)
[5] = system: Compound #64 resistant HCV 1b replicon cell lines vs wild type Huh-Luc-Neo replicon; test: EC50 determination (HCV RNA, quantitative PCR) in resistant vs wild type replicon clones; format: cell-based, HCV genotype 1b
Method: An HCV Replicon cell line (luc-neo/ET) and assay (Lohman et al, Science 1999, 285, 110) was used in the present invention. Specifically the HCV 1b Replicon cell line Huh-Luc-Neo was subjected to resistance selection by growth in culture in the presence of Compound #64 (Table 1) according to methods described by Mo et al., Antimicro. Agents Chemotherapy, 49, 4305-4314, 2005. Huh-Luc-Neo cells were initially subjected to selection with 0.5 μM Compound #64 (Table 1) and selection pressure was increased gradually up to 2 μM COMPOUND #64 (TABLE 1) over a period of 7 to 9 weeks and 5 cell lines derived from individual colonies were isolated and expanded. A specific clone resistant to 2 μM Compound #64 (Table 1) (Clone Comp.64-10R4) was the subjected to further selection pressure at increasing concentrations of Compound #64 (Table 1) and a replicon resistant to 10 μM Compound #64 (Table 1) was isolated (Clone Comp.64-50R4). The wild type Huh-Luc-Neo replicon cell line was cultured in parallel with the selections and characterized in a similar fashion to the resistant clones.
(§3) EC50 determinations were performed with Compound #64 (Table 1) vs. the wild type Huh-Luc-Neo replicon cell line and the 5 resistant replicon cell lines. Resistant and wild type replicons were plated in 96 well plates (5000-7000 cells/well) and treated with compound at varying concentrations (Compound #64 (Table 1)) for 72 hours. Cells were then lysed and RNA was isolated (Qiagen RNA Easy 96 kit) according to the manufacturer's recommendations. HCV RNA levels were then measured and EC50 values were determined by cDNA synthesis and quantitative PCR using HCV specific primers and GAPDH primers as controls (Example 55, Lohman et al, Science 1999, 285, 110). The effect of the compounds on inhibition of cell viability was performed on cells treated in parallel with using the Cell Titre Glo Assay Kit (Promega) according to the manufacturer's recommendations (Example 56). CC50s for the compound vs. the wild type and resistant replicons were determined to be >50 μM.

[6] = Cell Titre Glo cell viability on wild type and resistant replicons; format: cell-based; conditions: human
Method: as §3

[7] = Cell Titer-Glo Cell Viability Assay, genotype 1a cells; format: cell-based; conditions: human, En5-3/Htat2ANeo (HCV genotype 1a replicon) cells, HCV-1a assays, read-out: Cytotoxicity* (CC50)
Method: as §1, §2

[8] = system: HCV genotype 1a replicon (En5-3/Htat2ANeo cells); test: HCV-1a Replicon RNA (Taqman) inhibition assay; format: cell-based; conditions: Hepatitis C virus, 72 h
[9] = system: replicon resistant to 10 μM Compound #64 vs wild type Huh-7 Luc-ubi-neo/ET replicon; test: Cross resistance of Compound #64 resistant replicon; format: cell-based, HCV genotype 1b; conditions: for EC50 Resistant Replicon/EC50 Wild Type Replicon: replicon resistant to 10 μM Compound #64 vs wild type Huh-7 Luc-ubi-neo/ET replicon

SMILES | EC50 Luc-neo-ET-Y2065H/EC50 Luc-neo-ET [1] | EC50 [2] [µM] | CC50 at 72 h [3] [µM] | EC50 [4] [µM] | CC50 at 72 h [7] [µM] | EC50 [8] [µM] | other results
Cn1cc(C#Cc2ccc(NC(=O)[C@@H]3COCCN3C(=O)[C@H](NC(=O)NC(C)(C)C)c3ccccc3)cc2)c(-c2cc(Cl)ccc2O)n1 [Compound 53] | 71 | < 1 | 10 to 100 | < 1 |  |  | 
Cc1ccc(O)c(-c2nn(C)cc2C#Cc2ccc(NC(=O)[C@@H]3COCCN3C(=O)[C@H](NC(=O)OC(C)(C)C)c3ccccc3)cc2)c1 [Compound 23A] | 6 |  | > 100 |  |  |  | EC50 ([2]; GETYPE1B): < 1 µM; EC50 ([4]; GETYPE1B): < 1 µM
Cc1ccc(O)c(-c2nn(C)cc2C#Cc2ccc(NC(=O)[C@H]3CCCCN3C(=O)C(NC(=O)OC(C)(C)C)c3ccccc3)cc2)c1 (some centres unmarked) [64 (Table 1)] | >65 | < 1 | > 100 | < 1 |  |  | EC50 shift, resistant replicon vs wild type replicon ([5]; replicon resistant to 10 μM Compound #64, second NS5A mutation Y2065H): > 75 fold; EC50 Resistant Replicon/EC50 Wild Type Replicon ([5]; resistant clone Comp. 64-10R3, resistant conc. 2 μM): 1.5; EC50 Resistant Replicon/EC50 Wild Type Replicon ([5]; resistant clone Comp. 64-10R4, resistant conc. 2 μM): 3.48; EC50 Resistant Replicon/EC50 Wild Type Replicon ([5]; resistant clone Comp. 64-10R5, resistant conc. 2 μM): 2.92; EC50 Resistant Replicon/EC50 Wild Type Replicon ([5]; resistant clone Comp. 64-10R6, resistant conc. 2 μM): 2.18; EC50 Resistant Replicon/EC50 Wild Type Replicon ([5]; resistant clone Comp. 64-10R8, resistant conc. 2 μM): 3; EC50 Resistant Replicon/EC50 Wild Type Replicon ([5]; resistant clone Comp. 64-50R4, resistant conc. 10 μM): >75; CC50 at 72 h [6]: > 50 µM
N#CCCn1cc(C#Cc2ccc(NC(=O)[C@@H]3COCCN3C(=O)[C@H](NC(=O)c3ccccc3)c3ccccc3)cc2)c(-c2cc(Cl)ccc2O)n1 [Compound 13] |  |  |  |  | > 33.3 | < 1 | 
COc1ccc2c(O[C@@H]3C[C@H]4C(=O)N[C@]5(C(=O)O)C[C@H]5/C=C\CCCCC[C@H](NC(=O)OC5CCCC5)C(=O)N4C3)cc(-c3csc(NC(C)C)n3)nc2c1 [BILN 2061, reference compound] |  |  |  |  |  |  | EC50 Resistant Replicon/EC50 Wild Type Replicon [9]: 0.656
Cn1nccc1C(=O)N[C@@H](C(=O)N1CCOC[C@H]1C(=O)Nc1ccc(C#Cc2cn(CCC#N)nc2-c2cc(Cl)ccc2O)cc1)c1ccccc1 [Compound 1] |  |  |  |  | > 33.3 | < 1 | 
C[C@@H]1CN(C(=O)N[C@@H](C(=O)N2CCOC[C@H]2C(=O)Nc2ccc(C#Cc3cn(CCC#N)nc3-c3cc(Cl)ccc3O)cc2)c2ccccc2)C[C@H](C)O1 [Compound 8] |  |  |  |  | > 33.3 | < 1 | 
N#CCCn1cc(C#Cc2ccc(NC(=O)[C@@H]3COCCN3C(=O)[C@H](NC(=O)c3cnccn3)c3ccccc3)cc2)c(-c2cc(Cl)ccc2O)n1 [Compound 2] |  |  |  |  | > 33.3 | < 1 | 
Cc1ccc(O)c(-c2nn(C)cc2C#Cc2ccc(NC(=O)[C@@H]3COCCN3C(=O)[C@H](NC(=O)OC(C)(C)C)c3ccccc3)cc2)c1 |  |  |  |  |  |  | cross resistance in Compound #64 resistant replicon ([9]; replicon resistant to 10 μM Compound #64): cross resistant; EC50 Resistant Replicon/EC50 Wild Type Replicon [9]: 7.125
Cn1cc(C#Cc2ccc(NC(=O)[C@@H]3COCCN3C(=O)[C@H](NC(=O)C3CC3)c3ccccc3)cc2)c(-c2cc(Cl)ccc2O)n1 [Compound 52] | 79 | < 1 | 10 to 100 | < 1 |  |  | 
